The values that follow come from PubChem BioAssay AID256 (DTP/NCI, 2004).

The assay has as its system CD2F1 mice, L1210 leukemia ip, survival T/C. Kind of assay: NCI In Vivo Anticancer Drug Screen. Data for tumor model L1210 Leukemia (intraperitoneal) in CD2F1 (CDF1) mice. As to conditions: higher = longer survival. A digest of the protocol: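 Read-out first: treated-group measurement over vehicle-control measurement, expressed as a ratio. Animals bore a transplanted tumor line and were dosed with compound or vehicle.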

Setting [1] is: endpoint: mean survival time, dose: 100.0 mg/kg/injection, schedule: Q04DX003 (ip), vehicle: Klucel (hydroxypropylcellulose) (HPC).
Where [2] appears, read: endpoint: mean survival time, dose: 200.0 mg/kg/injection, schedule: Q04DX003 (ip), vehicle: Klucel (hydroxypropylcellulose) (HPC).
Setting [3] is: endpoint: mean survival time, dose: 400.0 mg/kg/injection, schedule: Q04DX003 (ip), vehicle: Klucel (hydroxypropylcellulose) (HPC).
The mark [4] stands for this setting: endpoint: mean survival time, dose: 100.0 mg/kg/injection, schedule: Q01DX001 (ip), vehicle: saline with Tween-80.
Setting [5] is: endpoint: mean survival time, dose: 200.0 mg/kg/injection, schedule: Q01DX001 (ip), vehicle: saline with Tween-80.
The mark [6] stands for this setting: endpoint: mean survival time, dose: 400.0 mg/kg/injection, schedule: Q01DX001 (ip), vehicle: saline with Tween-80.
[7] abbreviates: endpoint: mean survival time, dose: 75.0 mg/kg/injection, schedule: Q01DX001 (ip), vehicle: saline.
Where [8] appears, read: endpoint: mean survival time, dose: 25.0 mg/kg/injection, schedule: Q04DX003 (ip), vehicle: saline with Tween-80.
Setting [9] is: endpoint: mean survival time, dose: 50.0 mg/kg/injection, schedule: Q04DX003 (ip), vehicle: saline with Tween-80.
Setting [10] is: endpoint: mean survival time, dose: 100.0 mg/kg/injection, schedule: Q04DX003 (ip), vehicle: saline with Tween-80.
Where [11] appears, read: endpoint: mean survival time, dose: 100.0 mg/kg/injection, schedule: Q01DX009 (ip), vehicle: saline with Tween-80.
[12] abbreviates: endpoint: mean survival time, dose: 200.0 mg/kg/injection, schedule: Q01DX009 (ip), vehicle: saline with Tween-80.
Where [13] appears, read: endpoint: mean survival time, dose: 400.0 mg/kg/injection, schedule: Q01DX009 (ip), vehicle: saline with Tween-80.
Where [14] appears, read: endpoint: mean survival time, dose: 50.0 mg/kg/injection, schedule: Q01DX009 (ip), vehicle: saline with Tween-80.
The mark [15] stands for this setting: endpoint: mean survival time, dose: 200.0 mg/kg/injection, schedule: Q04DX003 (ip), vehicle: saline with Tween-80.
The mark [16] stands for this setting: endpoint: mean survival time, dose: 100.0 mg/kg/injection, schedule: Q04DX003 (ip), vehicle: saline.
Where [17] appears, read: endpoint: mean survival time, dose: 200.0 mg/kg/injection, schedule: Q04DX003 (ip), vehicle: saline.
Setting [18] is: endpoint: mean survival time, dose: 400.0 mg/kg/injection, schedule: Q04DX003 (ip), vehicle: saline.
The mark [19] stands for this setting: endpoint: mean survival time, dose: 400.0 mg/kg/injection, schedule: Q04DX003 (ip), vehicle: saline with Tween-80.
The mark [20] stands for this setting: endpoint: mean survival time, dose: 100.0 mg/kg/injection, schedule: Q01DX001 (ip), vehicle: saline.
Where [21] appears, read: endpoint: mean survival time, dose: 200.0 mg/kg/injection, schedule: Q01DX001 (ip), vehicle: saline.
The mark [22] stands for this setting: endpoint: mean survival time, dose: 400.0 mg/kg/injection, schedule: Q01DX001 (ip), vehicle: saline.
Where [23] appears, read: endpoint: mean survival time, dose: 100.0 mg/kg/injection, schedule: Q04DX002 (ip), vehicle: saline.
Where [24] appears, read: endpoint: mean survival time, dose: 200.0 mg/kg/injection, schedule: Q04DX002 (ip), vehicle: saline.

Each structure is given as a SMILES string. “And” between values parts separate entries of the source, which are not always exact repeats. Equal values may be shown once. Inconclusive results and toxic doses are left out.

With `Nc1ncnc2nc(-c3ccc(C(=O)c4cccc([N+](=O)[O-])c4)cc3)[nH]c12`, the T/C runs as follows: under setting [1], 108 % of control; under setting [2], 102 % of control; under setting [3], 100 % of control.

Turning to `Nc1nc(/C=C/c2ccc([N+](=O)[O-])cc2)c(-c2ccc(Cl)c(Cl)c2)c(=O)[nH]1`, the T/C was 92 % of control under setting [4], 89 % of control under setting [5] and 90 % of control under setting [6].

With `NC(=O)NN=C1CCC1`, the T/C under setting [7] is 98 % of control.

As to `COc1ccc(N2CSC(=S)N(c3ccc(OC)cc3)C2)cc1`, the T/C (endpoint: mean survival time, dose: 100.0 mg/kg/injection, schedule: Q04DX003 (ip), vehicle: other) is 94 % of control.

`COc1cc2nncc(Sc3cnnc4ccccc34)c2cc1OC`: the T/C was 92 % of control (endpoint: mean survival time, dose: 100.0 mg/kg/injection, schedule: Q01DX001 (ip), vehicle: other); 86 % of control (endpoint: mean survival time, dose: 200.0 mg/kg/injection, schedule: Q01DX001 (ip), vehicle: other); 92 % of control (endpoint: mean survival time, dose: 400.0 mg/kg/injection, schedule: Q01DX001 (ip), vehicle: other).

For the molecule `S=c1nn[nH]n1C1CCCCC1`, the T/C is 96 % of control under setting [8], 98 % of control under setting [9] and 92 % of control under setting [10].

`CNC(=O)c1ccc(C(=O)NC)cc1`: the T/C is 86 % of control under setting [11], 94 % of control under setting [12] and 96 % of control under setting [13].

For the molecule `COC(=O)C(C(=O)OC)C(Br)(OC(C)=O)OC(C)=O`, the T/C runs as follows: under setting [11], 97 % of control; under setting [12], 104 % of control; under setting [13], 109 % of control.

In the case of `CC(C)(CCl)C(=O)O`, the T/C was 110 % of control under setting [14]; 104 % of control under setting [11]; 100 % of control under setting [10]; 93 % of control under setting [12]; 104 % of control under setting [15].

Take `COc1ccc(NC(=O)Nc2nccs2)c(Cl)c1`: the T/C reads like this: (endpoint: mean survival time, dose: 50.0 mg/kg/injection, schedule: Q01DX009 (ip), vehicle: Klucel (hydroxypropylcellulose) (HPC)) 98 % of control; (endpoint: mean survival time, dose: 100.0 mg/kg/injection, schedule: Q01DX009 (ip), vehicle: Klucel (hydroxypropylcellulose) (HPC)) 98 % of control; under setting [1], 106 % of control; (endpoint: mean survival time, dose: 200.0 mg/kg/injection, schedule: Q01DX009 (ip), vehicle: Klucel (hydroxypropylcellulose) (HPC)) 87 % of control; under setting [2], 102 % of control; under setting [3], 98 % of control.

`OCN(CO)c1ccc2c(c1)Cc1cc(Cl)ccc1-2`: the T/C was 97 % of control under setting [16], 100 % of control under setting [17] and 91 % of control under setting [18].

On to `CC1=CSCC(=O)N1`, for which the T/C under setting [10] is 101 % of control, the T/C under setting [15] was 98 % of control and the T/C under setting [19] was 108 % of control.

Regarding `CC1C(=O)C(Br)CC2C1(C)CCC1C2(C)CCC2(C)C3CC(C)(C)CCC3(C)CCC12C` (configuration not stated), the T/C by setting is: under setting [20], 97 % of control; under setting [21], 97 % of control; under setting [22], 97 % of control.

On to `COc1ccc(F)c(NC(=O)/C=N/O)c1`, for which the T/C runs as follows: under setting [10], 102 % of control; under setting [15], 102 % of control; under setting [19], 100 % of control.

With `CC(C)CC(NC(=O)CN)C(=O)O` (configuration not stated), the T/C under setting [23] was 93 % of control; the T/C under setting [24] is 96 % of control; the T/C (endpoint: mean survival time, dose: 400.0 mg/kg/injection, schedule: Q04DX002 (ip), vehicle: saline) is 107 % of control.

In the case of `COC(=O)C(C)=O`, the T/C under setting [16] is 97 % of control, the T/C under setting [17] is 100 % of control and the T/C under setting [18] was 102 % of control.

Regarding `N#C/C(=C\c1ccc([N+](=O)[O-])o1)[N+](=O)[O-]`, the T/C reads like this: under setting [8], 104 % of control; under setting [9], 94 % of control; under setting [10], 97 % of control.

With `CN(C=O)NC(=O)N(CCCl)N=O`, the T/C reads like this: (endpoint: median survival time, dose: 3.12 mg/kg/injection, schedule: Q01DX001 (ip), vehicle: saline) 176 % of control and 200 % of control; (endpoint: median survival time, dose: 6.25 mg/kg/injection, schedule: Q01DX001 (ip), vehicle: saline) 197 % of control and 312 % of control; (endpoint: median survival time, dose: 12.5 mg/kg/injection, schedule: Q01DX001 (ip), vehicle: saline) 370 % of control and 375 % of control; (endpoint: median survival time, dose: 25.0 mg/kg/injection, schedule: Q01DX001 (ip), vehicle: saline) 370 % of control and 375 % of control; (endpoint: median survival time, dose: 50.0 mg/kg/injection, schedule: Q01DX001 (ip), vehicle: saline) 87 % of control.

Take `CC(=O)CCS(=O)(=O)O`: the T/C under setting [4] was 92 % of control, the T/C under setting [5] was 95 % of control and the T/C under setting [6] was 88 % of control.

As for `CCOC(=O)/C=C/c1c[nH]c(C(=O)OCC)c1`, the T/C (endpoint: mean survival time, dose: 100.0 mg/kg/injection, schedule: Q04DX002 (ip), vehicle: other) is 93 % of control; the T/C (endpoint: mean survival time, dose: 200.0 mg/kg/injection, schedule: Q04DX002 (ip), vehicle: other) was 93 % of control; the T/C (endpoint: mean survival time, dose: 400.0 mg/kg/injection, schedule: Q04DX002 (ip), vehicle: other) is 100 % of control.

Consider `CCOC(=O)C(CC)(OC(C)=O)C(=O)C[n+]1ccccc1` (configuration not stated), for which the T/C reads like this: under setting [20], 108 % of control; under setting [16], 101 % of control; under setting [21], 106 % of control; under setting [17], 101 % of control; under setting [22], 106 % of control; under setting [18], 101 % of control.

As to `CC(C)(CN(Cc1ccccc1)Cc1ccccc1)[N+](=O)[O-]`, the T/C under setting [14] was 98 % of control, the T/C under setting [11] is 98 % of control and the T/C under setting [12] is 90 % of control.

Take `COP(=O)(OC)OCC1OC(c2n[nH]c(C(N)=O)c2O)C(O)C1O` (configuration not stated): the T/C by setting is: (endpoint: median survival time, dose: 8.13 mg/kg/injection, schedule: Q01DX005 (ip), vehicle: saline) 100 % of control; (endpoint: median survival time, dose: 16.25 mg/kg/injection, schedule: Q01DX005 (ip), vehicle: saline) 102 % of control; (endpoint: median survival time, dose: 32.5 mg/kg/injection, schedule: Q01DX005 (ip), vehicle: saline) 101 % of control; (endpoint: median survival time, dose: 65.0 mg/kg/injection, schedule: Q01DX005 (ip), vehicle: saline) 111 % of control; (endpoint: median survival time, dose: 130.0 mg/kg/injection, schedule: Q01DX005 (ip), vehicle: saline) 111 % of control.

As to `CCCCCOC(CN)C(Cl)(Cl)Cl` (configuration not stated), the T/C is, setting by setting: (endpoint: mean survival time, dose: 12.5 mg/kg/injection, schedule: Q01DX009 (ip), vehicle: saline with Tween-80) 101 % of control; (endpoint: mean survival time, dose: 25.0 mg/kg/injection, schedule: Q01DX009 (ip), vehicle: saline with Tween-80) 96 % of control; under setting [14], 95 % of control; under setting [11], 98 % of control.

Take `O=C(COc1cccc(Cl)c1)NCc1ccc(Cl)cc1`: the T/C under setting [10] was 99 % of control, the T/C under setting [15] is 101 % of control and the T/C under setting [19] is 91 % of control.

Consider `CSCCC(C)(C)C`, for which the T/C under setting [7] was 103 % of control.

On to `CCOC(=O)c1c(C)[nH]c(C)cc1=O`, for which the T/C reads like this: under setting [23], 103 % of control; under setting [24], 108 % of control.

`CC(=O)Oc1ccc(Cl)cc1`: the T/C is 95 % of control under setting [11]; 103 % of control under setting [10]; 98 % of control under setting [12]; 89 % of control under setting [15]; 89 % of control under setting [19].

`CC1=C[P+](c2ccccc2)(c2ccccc2)C=C(c2ccccc2)O1`: the T/C (endpoint: median survival time, dose: 1.25 mg/kg/injection, schedule: Q01DX009 (ip), vehicle: suspension in saline) is 108 % of control; the T/C (endpoint: median survival time, dose: 2.5 mg/kg/injection, schedule: Q01DX009 (ip), vehicle: suspension in saline) was 111 % of control; the T/C (endpoint: median survival time, dose: 5.0 mg/kg/injection, schedule: Q01DX009 (ip), vehicle: suspension in saline) was 113 % of control; the T/C (endpoint: median survival time, dose: 10.0 mg/kg/injection, schedule: Q01DX009 (ip), vehicle: suspension in saline) was 123 % of control; the T/C (endpoint: median survival time, dose: 20.0 mg/kg/injection, schedule: Q01DX009 (ip), vehicle: suspension in saline) is 104 % of control.
